{"source": "patent EP4578855A1", "about": "“PROLYL HYDROXYLASE INHIBITOR AND USE THEREOF” (Suzhong Pharmaceutical Group Co., Ltd., priority 2022, dated 2024)", "key": {"[1]": {"tested_on": "human hepatocarcinoma cell line Hep3B", "assay": "In-vitro erythropoietin (EPO)-inducing activity experiment (EPO ELISA, OD450)", "type": "cell-based", "details": "Homo sapiens, Hep3B, 24 h, Hep3B cells, incubated 24 hours at 37°C", "procedure": "In-vitro erythropoietin (EPO)-inducing activities of the compounds in Embodiments 10 to 12 were evaluated by using a human hepatocarcinoma cell line Hep3B (ATCC). Hep3B cells were cultured in an EMEM medium (Eagle's Minimum Essential Medium) at 37°C in the presence of 10% fetal bovine serum (FBS). Experimental steps were as follows: • (1) Cell preparation: the cells were inoculated in a 96-well plate, and cell plating was carried out according to an amount of 100 µL per well based on 2*10~4 per well. • (2) Preparation of compound concentration gradient: 100 µM, 20 µM, 2-parallel well detection. A solution with 200 times final concentration was prepared in a 96-well plate, the compound was diluted 200/3 times by using a cell culture medium, and then 50 µL of the compound was sucked for drug administration to the cells. 50 µL of DMSO-containing culture solution was added into a negative control well to make a final concentration contain 5 ‰ DMSO, and 50 µL of positive compound with the highest concentration was added into a positive control well to incubate the cells at 37°C for 24 hours. • (3) The reaction plate was washed twice with 1X Wash Buffer according to about 400 µL per well. • (4) 100 µL of diluted standard (comprising a standard blank control) was added into an appropriate well. • (5) 50 µL of sample and 50 µL of Sample Diluent were added into a sample well. • (6) 50 µL of 1X Biotin Conjugated Antibody were added into all wells to incubate the cells at room temperature for 1 hour. • (7) The reaction plate was washed with 1X Wash Buffer for 6 times according to about 400 µL per well. • (8) 100 µL of 1X Streptavidin-HRP was added in to each well to incubate the cells at room temperature for 15 minutes. • (9) The reaction plate was washed with 1X Wash Buffer for 6 times according to about 400 µL per well. • (10) 100 µL of TMB Substrate Solution was added into each well to incubate the cells at room temperature for 10 minutes. • (11) 100 µL of Stop Solution was added into each well. • (12) OD450 was read by EnSight.\nThe EPO-inducing activities of the compounds were expressed as the concentration for 50% of maximal effect (EC50)."}, "EPO (erythropoietin)": {"tested_on": "EPO (erythropoietin)", "assay": "Pharmacological evaluation: influence of continuous administration on EPO level", "type": "in vivo, SD rats", "procedure": "This experiment was intended to evaluate an influence of continuous administration of the compounds prepared in Embodiments 12, 13 and 14 on EPO (erythropoietin) in SD rats.\n• Line: SD (Sprague Dawley) • Weeks of age and weight: 8 weeks, weight 200 g to 220 g • Sex: male • Animal source: Beijing Vital River Laboratory Animal Technology Co., Ltd.\n• Positive drug: Enarodustat • Description: commercialized drugs approved for marketing in Japan • Specification and content: 2 mg JTZ-951(Enarodustat), 140 capsules/box\nAfter a week of adaptive feeding, SD rats were randomly divided into 3 groups, 6 rats in each group, which were namely a blank group, a positive drug group (Enarodustat) and a group of compound in Embodiment 12. An Enarodustat tablet was crushed by a mortar, then quantitatively added with 0.5% methyl cellulose, and magnetically stirred and mixed evenly; and the compound prepared in Embodiment 12 was weighed, then quantitatively added with 0.5% methyl cellulose, and magnetically stirred and mixed evenly. […] The drug was given once a day for 14 consecutive days, and blood was taken to measure an EPO level 4 hours after the drug was given on the 14th day."}, "[2]": {"assay": "Subacute toxicity test, 14 consecutive days", "type": "in vivo", "details": "SD rats, 10 mg/kg once a day for 14 consecutive days, in words", "excerpt": "A proper amount of the compound in Embodiment 13 and a proper amount of the compound in Embodiment 14 were weighed by a balance and respectively placed into proper glass bottles, then DMSO, Solutol HS-15 and 0.9% physiological saline (in a ratio of v: v: v = 5%: 10%: 85%) were sequentially added into the glass bottles, and vortexed and stirred, and a drug dissolution condition was continuously concerned in the stirring process until the compounds were completely dissolved/suspended. Finally, drug solutions of the compound in Embodiment 13 and the compound in Embodiment 14 with a concentration of 0.67 mg/mL were prepared for current use.\nAn animal room was well ventilated, equipped with an air-conditioner, kept at a temperature of 20°C and 25°C and a humidity of 40% to 70%, and in light and dark conditions for 12 hours respectively, and the animals could eat and drink freely. SD rats with good physical signs could be selected for this experiment after being adaptively fed for at least 3 days before administration. Table 23 Source and number of experimental animals\nAny operation on the experimental animals in this experiment met the requirements of the \"Regulations for the Administration of Affairs Concerning Experimental Animals\" issued by the Ministry of Science and Technology of the People's Republic of China. In this experiment, a solvent control group, an administration group of compound in Embodiment 13 and an administration group of compound in Embodiment 14 were set up. Administration dosages of the administration group of compound in Embodiment 13 and the administration group of compound in Embodiment 14 were (10 mg/kg) once a day for 14 consecutive days, while the same amount of blank solvent was given to the blank control group, and administration volumes were all 15 mL/kg. After each administration, symptoms and degrees of toxic reaction of the animals were observed. Recovery observation was carried out for 7 days after the last administration. […]\nDuring the experiment, experimenters and veterinarians should observe physical signs and health conditions of the experimental animals continuously. Any abnormal manifestations of the animals, such as pain, depression and decreased activity should be recorded in original records of the experiment. […]\nDuring the experiment, all animals were observed beside cages at least twice a day, and observed continuously for 2 hours after the drug administration. During the drug administration, if the animals had serious side effects or died, observation results should be recorded in a corresponding form. […]\nThe animals should be weighed before daily drug administration for 14 consecutive days, and the weights were recorded in a corresponding form. Food intakes of the experimental animals were detected during the experiment. […]"}}, "note": "pEC50: −log10 of the molar value. Values joined by “and” are separate entries in the source; they are usually repeats but may differ in a detail not shown here. Identical values can stand only once."}
{"molecule": "O=C(O)CNC(=O)c1c(O)cc(C2CCc3ccccc3C2)n2ncnc12", "note": "(single isomer, unassigned) [Compound in Embodiment 13, [(7-hydroxy-5-(1,2,3,4-tetrahydronaphthalene-2-yl)-[1,2,4]triazolo[1,5-a]pyridine-8-carbonyl)amino]acetic acid]", "values": [{"measurement": "pEC50", "setting": "[1]", "value": 5.30}, {"measurement": "EPO levels in serum of the rats", "setting": "EPO (erythropoietin); after 14 days of administration, in words", "value": "increased significantly"}, {"measurement": "EPO levels in plasma of the rats", "setting": "EPO (erythropoietin); after administration, compared with the group of positive drug Enarodustat, in words", "value": "significantly higher"}, {"measurement": "EPO level after 14 days of administration", "setting": "EPO (erythropoietin); individual rats 1-6, 0.3 mg/mL, 10 mL/kg, once a day for 14 consecutive days, blood 4 hours after the drug on the 14th day, 2904.6 pg/mL was an upper limit of measurement", "value": "≥ 2904.6 pg/mL (3×) and 2697.4 pg/mL and 2658.5 pg/mL and 2772.1 pg/mL"}, {"measurement": "EPO level after 14 days of administration, Mean", "setting": "EPO (erythropoietin); mean of 6 rats, 0.3 mg/mL, 10 mL/kg, once a day for 14 consecutive days, blood 4 hours after the drug on the 14th day, 2904.6 pg/mL was an upper limit of measurement", "value": 2807.0, "unit": "pg/mL"}, {"measurement": "toxicities", "setting": "[2]; compared with Enarodustat", "value": "lower than that of Enarodustat"}, {"measurement": "gastrointestinal findings", "setting": "[2]", "value": "no obvious gastrointestinal necrosis, and bleeding spots or flatulence in a black stomach part"}]}
